Square brackets hold non-standard residues; d marks the D form. Peptide text beside a SMILES is read from it. Dip = N[C@H](C(=O)O)C(c1ccccc1)c1ccccc1; Chg = N[C@H](C(=O)O)C1CCCCC1; NMeA = CN[C@@H](C)C(=O)O
What was measured:
[1] = biological target: Tyrosine-protein kinase JAK1 (Homo sapiens, UniProt P23458); test: Inhibition of human JAK1 using 5FAM-KKSRGDYMTMQID as substrate by caliper microfluidic mobility shift assay
[2] = biological target: T1, Tyrosine-protein kinase JAK3 (Homo sapiens, UniProt P52333); test: Inhibition of human JAK3 using FITC-KGGEEEEYFELVKK as substrate by caliper microfluidic mobility shift assay
T1 sequence (P52333 whole entry): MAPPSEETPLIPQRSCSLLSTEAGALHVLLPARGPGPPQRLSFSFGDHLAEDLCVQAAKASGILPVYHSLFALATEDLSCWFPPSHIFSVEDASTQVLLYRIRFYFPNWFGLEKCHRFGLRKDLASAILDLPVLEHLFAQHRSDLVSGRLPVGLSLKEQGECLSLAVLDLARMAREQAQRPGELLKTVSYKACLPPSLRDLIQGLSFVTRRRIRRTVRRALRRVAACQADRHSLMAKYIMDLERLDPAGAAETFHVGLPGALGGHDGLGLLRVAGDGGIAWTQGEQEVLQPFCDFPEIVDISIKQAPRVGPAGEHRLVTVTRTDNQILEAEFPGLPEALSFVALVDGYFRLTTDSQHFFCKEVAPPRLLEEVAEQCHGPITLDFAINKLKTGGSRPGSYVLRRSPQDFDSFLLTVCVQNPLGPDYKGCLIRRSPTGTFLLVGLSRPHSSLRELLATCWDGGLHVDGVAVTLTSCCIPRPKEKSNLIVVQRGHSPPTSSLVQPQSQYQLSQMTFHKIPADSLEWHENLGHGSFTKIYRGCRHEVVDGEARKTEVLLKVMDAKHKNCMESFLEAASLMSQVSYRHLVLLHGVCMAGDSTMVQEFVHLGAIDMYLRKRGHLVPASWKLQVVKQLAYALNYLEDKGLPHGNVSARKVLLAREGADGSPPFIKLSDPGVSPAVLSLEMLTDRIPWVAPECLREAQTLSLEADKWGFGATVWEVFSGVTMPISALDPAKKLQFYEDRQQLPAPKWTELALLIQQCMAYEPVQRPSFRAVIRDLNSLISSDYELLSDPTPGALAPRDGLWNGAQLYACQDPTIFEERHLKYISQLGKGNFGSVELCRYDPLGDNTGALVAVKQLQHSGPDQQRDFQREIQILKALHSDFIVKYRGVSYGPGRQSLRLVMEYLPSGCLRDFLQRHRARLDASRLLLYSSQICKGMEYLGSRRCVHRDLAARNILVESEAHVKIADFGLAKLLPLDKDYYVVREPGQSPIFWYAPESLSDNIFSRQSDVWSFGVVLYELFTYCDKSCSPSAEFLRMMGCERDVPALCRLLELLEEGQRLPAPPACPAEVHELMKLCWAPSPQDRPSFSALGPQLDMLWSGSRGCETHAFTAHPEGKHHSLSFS

[3] = Downregulation of JAK2 mRNA expression in human PBMC at 1 uM after 22 hrs by qPCR analysis relative to control; type: functional
[4] = biological target: Non-receptor tyrosine-protein kinase TYK2 (Homo sapiens, UniProt P29597); test: Inhibition of human TYK2 using 5FAM-KKSRGDYMTMQID as substrate by caliper microfluidic mobility shift assay
Sequence of Non-receptor tyrosine-protein kinase TYK2 (P29597 whole entry): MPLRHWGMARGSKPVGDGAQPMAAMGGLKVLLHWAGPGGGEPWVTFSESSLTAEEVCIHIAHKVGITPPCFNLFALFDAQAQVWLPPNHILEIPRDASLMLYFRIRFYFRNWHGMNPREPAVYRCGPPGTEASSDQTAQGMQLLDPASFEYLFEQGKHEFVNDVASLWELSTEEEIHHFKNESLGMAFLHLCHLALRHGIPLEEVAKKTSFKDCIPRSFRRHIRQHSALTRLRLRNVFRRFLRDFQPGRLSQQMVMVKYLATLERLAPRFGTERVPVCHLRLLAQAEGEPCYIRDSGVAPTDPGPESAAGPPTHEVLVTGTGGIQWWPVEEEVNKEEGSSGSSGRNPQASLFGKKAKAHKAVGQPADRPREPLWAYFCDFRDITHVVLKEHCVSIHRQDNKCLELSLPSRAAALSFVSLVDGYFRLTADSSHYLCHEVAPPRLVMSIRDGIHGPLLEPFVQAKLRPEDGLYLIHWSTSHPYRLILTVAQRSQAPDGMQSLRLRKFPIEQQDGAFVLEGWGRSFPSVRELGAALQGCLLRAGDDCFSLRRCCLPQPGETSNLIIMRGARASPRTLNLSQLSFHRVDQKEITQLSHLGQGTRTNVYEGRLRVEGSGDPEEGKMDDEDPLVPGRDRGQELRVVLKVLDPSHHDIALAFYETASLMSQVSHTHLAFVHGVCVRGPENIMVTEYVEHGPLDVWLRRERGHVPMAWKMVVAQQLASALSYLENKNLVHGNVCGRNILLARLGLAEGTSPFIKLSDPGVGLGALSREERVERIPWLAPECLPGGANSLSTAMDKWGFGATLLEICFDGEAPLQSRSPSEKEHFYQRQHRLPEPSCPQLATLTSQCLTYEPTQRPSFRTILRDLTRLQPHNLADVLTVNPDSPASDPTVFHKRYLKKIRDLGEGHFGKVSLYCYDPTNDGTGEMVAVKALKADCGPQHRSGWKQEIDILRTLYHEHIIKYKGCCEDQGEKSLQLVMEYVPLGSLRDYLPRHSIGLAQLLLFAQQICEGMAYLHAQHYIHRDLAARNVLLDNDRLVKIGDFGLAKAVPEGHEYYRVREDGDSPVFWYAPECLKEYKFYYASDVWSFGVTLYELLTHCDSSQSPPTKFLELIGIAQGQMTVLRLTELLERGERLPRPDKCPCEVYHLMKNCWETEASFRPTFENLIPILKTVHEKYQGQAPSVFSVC

[5] = Downregulation of JAK3 mRNA expression in human PBMC at 1 uM after 22 hrs by qPCR analysis relative to control; type: functional
[6] = biological target: Tyrosine-protein kinase JAK2 (Homo sapiens, UniProt O60674); test: Inhibition of human JAK2 using FITC-KGGEEEEYFELVKK as substrate by caliper microfluidic mobility shift assay
[7] = biological target: Histone-lysine N-methyltransferase EZH2 (Homo sapiens, UniProt Q15910); test: Binding affinity to EZH2 (unknown origin)
Sequence of Histone-lysine N-methyltransferase EZH2 (Q15910 whole entry): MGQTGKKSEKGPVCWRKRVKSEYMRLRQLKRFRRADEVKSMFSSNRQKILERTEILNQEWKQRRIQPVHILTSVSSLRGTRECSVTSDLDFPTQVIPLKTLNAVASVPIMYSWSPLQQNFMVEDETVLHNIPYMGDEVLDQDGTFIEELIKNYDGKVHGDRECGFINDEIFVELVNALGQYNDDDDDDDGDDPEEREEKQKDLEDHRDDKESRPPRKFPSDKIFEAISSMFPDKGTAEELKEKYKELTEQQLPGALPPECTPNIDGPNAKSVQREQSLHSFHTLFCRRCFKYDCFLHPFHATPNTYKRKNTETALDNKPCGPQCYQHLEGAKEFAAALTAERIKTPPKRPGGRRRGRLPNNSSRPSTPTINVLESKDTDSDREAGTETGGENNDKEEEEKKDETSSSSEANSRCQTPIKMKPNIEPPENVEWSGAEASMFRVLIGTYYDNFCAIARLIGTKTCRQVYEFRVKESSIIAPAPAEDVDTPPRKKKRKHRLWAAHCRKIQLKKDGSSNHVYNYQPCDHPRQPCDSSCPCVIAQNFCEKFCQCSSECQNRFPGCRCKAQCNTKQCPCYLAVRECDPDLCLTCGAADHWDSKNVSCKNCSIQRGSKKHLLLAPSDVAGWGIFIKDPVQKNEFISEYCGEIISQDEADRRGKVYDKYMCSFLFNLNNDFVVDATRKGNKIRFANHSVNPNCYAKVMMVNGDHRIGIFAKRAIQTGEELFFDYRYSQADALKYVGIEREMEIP

[8] = Antiproliferative activity against human SK-N-BE2 cells after 72 hrs by CyQUANT reagent based assay relative to control; type: functional; settings: SKNBE2
[9] = cells; settings: Homo sapiens, SKNBE2, 72 h
[10] = biological target: Leucine-rich repeat serine/threonine-protein kinase 2 (Homo sapiens, UniProt Q5S007, G2019S); test: Inhibition of LRRK2 G2019S mutant (unknown origin)
Sequence of Leucine-rich repeat serine/threonine-protein kinase 2 (Q5S007 whole entry G2019S, the tested form may be a part): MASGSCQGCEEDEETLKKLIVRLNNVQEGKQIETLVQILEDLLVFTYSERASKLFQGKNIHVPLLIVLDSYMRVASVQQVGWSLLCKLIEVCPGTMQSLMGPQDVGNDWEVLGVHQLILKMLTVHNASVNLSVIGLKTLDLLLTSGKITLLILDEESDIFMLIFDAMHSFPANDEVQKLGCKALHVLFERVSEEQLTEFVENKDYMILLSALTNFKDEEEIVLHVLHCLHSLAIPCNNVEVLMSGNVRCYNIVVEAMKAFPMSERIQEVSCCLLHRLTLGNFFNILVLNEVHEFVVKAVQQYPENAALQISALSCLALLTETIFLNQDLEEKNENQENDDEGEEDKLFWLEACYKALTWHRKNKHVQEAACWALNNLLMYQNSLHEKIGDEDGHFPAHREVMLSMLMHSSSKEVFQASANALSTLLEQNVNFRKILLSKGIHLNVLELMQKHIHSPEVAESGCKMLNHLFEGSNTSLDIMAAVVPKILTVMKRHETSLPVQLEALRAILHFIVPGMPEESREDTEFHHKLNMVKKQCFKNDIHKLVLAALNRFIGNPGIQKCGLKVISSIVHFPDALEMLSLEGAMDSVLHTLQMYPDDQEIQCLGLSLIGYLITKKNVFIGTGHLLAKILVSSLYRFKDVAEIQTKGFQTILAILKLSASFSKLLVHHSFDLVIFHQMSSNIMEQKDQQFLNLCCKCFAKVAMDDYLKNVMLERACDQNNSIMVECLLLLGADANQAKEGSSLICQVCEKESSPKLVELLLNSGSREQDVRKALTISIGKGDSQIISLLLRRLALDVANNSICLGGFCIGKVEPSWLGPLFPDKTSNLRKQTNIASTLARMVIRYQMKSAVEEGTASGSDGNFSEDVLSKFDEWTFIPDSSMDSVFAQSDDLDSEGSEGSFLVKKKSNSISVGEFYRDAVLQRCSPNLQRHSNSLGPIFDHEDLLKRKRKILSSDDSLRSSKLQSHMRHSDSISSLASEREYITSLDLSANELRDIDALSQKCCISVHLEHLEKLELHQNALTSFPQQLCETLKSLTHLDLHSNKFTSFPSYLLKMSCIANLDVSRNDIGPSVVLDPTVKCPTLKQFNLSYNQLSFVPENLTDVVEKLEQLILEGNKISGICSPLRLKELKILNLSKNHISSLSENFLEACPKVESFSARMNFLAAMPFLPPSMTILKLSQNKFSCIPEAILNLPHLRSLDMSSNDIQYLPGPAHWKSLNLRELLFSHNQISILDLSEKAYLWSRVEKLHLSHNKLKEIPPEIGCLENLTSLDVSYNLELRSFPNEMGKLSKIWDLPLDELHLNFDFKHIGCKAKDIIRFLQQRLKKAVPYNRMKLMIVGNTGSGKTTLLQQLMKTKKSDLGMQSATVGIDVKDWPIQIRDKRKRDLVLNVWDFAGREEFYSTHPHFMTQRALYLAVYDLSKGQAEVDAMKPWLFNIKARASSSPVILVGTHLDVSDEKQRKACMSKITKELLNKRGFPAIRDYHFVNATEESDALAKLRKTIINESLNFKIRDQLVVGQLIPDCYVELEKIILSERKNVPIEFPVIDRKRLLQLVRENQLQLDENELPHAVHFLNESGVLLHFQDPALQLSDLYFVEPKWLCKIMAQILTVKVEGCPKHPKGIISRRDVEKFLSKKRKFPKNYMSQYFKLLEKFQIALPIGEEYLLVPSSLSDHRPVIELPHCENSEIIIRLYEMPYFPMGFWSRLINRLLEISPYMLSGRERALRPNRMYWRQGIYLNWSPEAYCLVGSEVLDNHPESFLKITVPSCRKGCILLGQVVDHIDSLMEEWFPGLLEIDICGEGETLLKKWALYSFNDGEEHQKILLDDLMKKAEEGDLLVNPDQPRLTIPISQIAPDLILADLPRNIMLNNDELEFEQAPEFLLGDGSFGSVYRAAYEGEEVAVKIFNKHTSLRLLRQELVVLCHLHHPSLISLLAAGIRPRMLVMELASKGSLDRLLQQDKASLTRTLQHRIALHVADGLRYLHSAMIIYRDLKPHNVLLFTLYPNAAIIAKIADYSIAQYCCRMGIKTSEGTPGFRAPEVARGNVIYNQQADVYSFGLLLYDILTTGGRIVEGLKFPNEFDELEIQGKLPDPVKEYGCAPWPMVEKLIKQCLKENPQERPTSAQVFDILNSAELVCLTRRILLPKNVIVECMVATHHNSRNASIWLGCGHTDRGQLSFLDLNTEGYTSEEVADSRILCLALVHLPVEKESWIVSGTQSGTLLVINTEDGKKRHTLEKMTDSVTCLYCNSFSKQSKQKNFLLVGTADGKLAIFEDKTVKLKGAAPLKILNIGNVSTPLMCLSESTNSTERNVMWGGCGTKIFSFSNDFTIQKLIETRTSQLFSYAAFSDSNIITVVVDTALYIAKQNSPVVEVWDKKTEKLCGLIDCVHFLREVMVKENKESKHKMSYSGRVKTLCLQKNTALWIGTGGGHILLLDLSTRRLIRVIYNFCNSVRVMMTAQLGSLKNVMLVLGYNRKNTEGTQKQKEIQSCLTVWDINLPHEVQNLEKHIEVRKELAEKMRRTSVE

[11] = biological target: Baculoviral IAP repeat-containing protein 2 (Homo sapiens, UniProt Q13490); test: Binding affinity to c-IAP1-BIR3 (unknown origin) (124 to 240 residues) expressed in Escherichia coli BL21-Gold (DE3) by surface plasmon resonance assay
Sequence of Baculoviral IAP repeat-containing protein 2 (Q13490 whole entry, the tested form may be a part): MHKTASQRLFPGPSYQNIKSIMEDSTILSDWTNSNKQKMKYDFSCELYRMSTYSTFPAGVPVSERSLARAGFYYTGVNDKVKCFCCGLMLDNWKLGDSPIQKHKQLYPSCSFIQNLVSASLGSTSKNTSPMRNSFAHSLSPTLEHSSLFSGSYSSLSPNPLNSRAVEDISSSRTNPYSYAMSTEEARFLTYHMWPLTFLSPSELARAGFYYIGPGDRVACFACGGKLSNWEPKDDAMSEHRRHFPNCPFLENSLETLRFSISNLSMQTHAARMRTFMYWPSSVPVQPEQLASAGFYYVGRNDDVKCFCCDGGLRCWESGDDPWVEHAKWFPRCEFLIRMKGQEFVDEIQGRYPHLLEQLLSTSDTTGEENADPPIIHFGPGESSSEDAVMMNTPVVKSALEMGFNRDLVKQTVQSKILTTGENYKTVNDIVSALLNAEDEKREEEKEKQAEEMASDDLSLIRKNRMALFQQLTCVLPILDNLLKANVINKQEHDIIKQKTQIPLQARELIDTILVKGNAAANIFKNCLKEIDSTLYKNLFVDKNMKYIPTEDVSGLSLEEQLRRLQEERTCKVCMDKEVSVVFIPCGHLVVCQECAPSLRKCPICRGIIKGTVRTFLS

[12] = biological target: E3 ubiquitin-protein ligase XIAP (Homo sapiens, UniProt P98170); test: Binding affinity to XIAP-BIR3 (unknown origin) (124 to 240 residues) expressed in Escherichia coli BL21-Gold (DE3) by surface plasmon resonance assay
[13] = Selectivity ratio of IC50 for human IOSE144 cells to IC50 for human OVCAR3 cells; type: functional
[14] = test system: A2780; test: Growth inhibition of human A2780 cells incubated for 48 hrs by MTT assay; type: functional, cell-based; settings: A2780, 48 h
[15] = Selectivity ratio of IC50 for human IOSE144 cells to IC50 for human A2780 cells; type: functional
[16] = test system: OVCAR-3; test: Growth inhibition of human OVCAR3 cells incubated for 48 hrs by MTT assay; type: functional, cell-based; settings: OVCAR-3, 48 h
[17] = biological target: T2, Androgen receptor (Homo sapiens, UniProt P10275); test: Inhibition of androgen receptor LBD domain (unknown origin)
T2 sequence (P10275 whole entry): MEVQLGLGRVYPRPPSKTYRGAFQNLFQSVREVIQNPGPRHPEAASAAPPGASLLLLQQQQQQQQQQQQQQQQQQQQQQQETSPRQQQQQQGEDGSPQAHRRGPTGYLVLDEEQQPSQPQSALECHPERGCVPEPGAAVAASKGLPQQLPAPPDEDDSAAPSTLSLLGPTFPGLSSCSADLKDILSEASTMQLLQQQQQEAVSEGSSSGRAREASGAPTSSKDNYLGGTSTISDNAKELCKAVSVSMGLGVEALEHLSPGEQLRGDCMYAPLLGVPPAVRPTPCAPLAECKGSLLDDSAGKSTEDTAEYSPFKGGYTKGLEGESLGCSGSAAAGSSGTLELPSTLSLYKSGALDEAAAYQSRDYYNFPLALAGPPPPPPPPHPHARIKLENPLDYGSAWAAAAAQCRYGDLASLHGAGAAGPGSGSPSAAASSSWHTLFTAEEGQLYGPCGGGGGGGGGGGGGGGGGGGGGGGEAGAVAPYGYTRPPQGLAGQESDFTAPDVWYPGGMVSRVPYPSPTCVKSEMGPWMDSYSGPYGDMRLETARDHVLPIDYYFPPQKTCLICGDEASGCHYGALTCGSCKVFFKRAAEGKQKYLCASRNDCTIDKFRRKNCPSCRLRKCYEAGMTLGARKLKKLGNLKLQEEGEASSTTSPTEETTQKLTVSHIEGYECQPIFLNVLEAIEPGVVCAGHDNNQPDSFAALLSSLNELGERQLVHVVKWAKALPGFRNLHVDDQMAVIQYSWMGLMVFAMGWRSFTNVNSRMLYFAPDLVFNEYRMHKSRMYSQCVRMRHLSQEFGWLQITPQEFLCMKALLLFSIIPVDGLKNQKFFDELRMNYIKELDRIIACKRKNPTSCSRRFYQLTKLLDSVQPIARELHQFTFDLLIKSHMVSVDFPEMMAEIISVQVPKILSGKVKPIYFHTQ

[18] = biological target: B-cell lymphoma 6 protein (Homo sapiens) (UniProt P41182); test: Induction of BCL6 degradation in human SU-DHL-4 cells at 5 uM measured after 5 mins by capillary electrophoresis relative to control; type: cell-based
[19] = biological target: B-cell lymphoma 6 protein (Homo sapiens) (UniProt P41182); test: Induction of BCL6 degradation in human SU-DHL-4 cells at 5 uM measured after 2 hrs by capillary electrophoresis relative to control; type: cell-based
[20] = biological target: T3, B-cell lymphoma 6 protein (Homo sapiens, UniProt P41182, C67R/C84N/C8Q); test: Inhibition of BCOR peptide binding to BCL6 BTB domain (5 to 129 residues) C8Q/C67R/C84N triple mutant (unknown origin) expressed in Escherichia coli BL21(DE3) cells preincubated for 30 mins followed by BCOR ULight peptide addition and measured after 240 mins by TR-FRET assay
[21] = biological target: T3, B-cell lymphoma 6 protein; test: Inhibition of BCL6 BTB domain (5 to 129 residues) C8Q/C67R/C84N triple mutant (unknown origin) expressed in Escherichia coli BL21(DE3) cells using 5-TAMRA-RSEIISTAPSSWVVPG incubated for 1 hr by fluorescence polarization assay

In the case of `C[C@@H]1CCN(C(=O)N2CCCC2)C[C@@H]1N(C)c1ncnc2[nH]ccc12`, the IC50 [1] is reported as 0.0075 µM, the IC50 [2] is reported as 0.0028 µM and the Activity [3] is reported as 50%. It also gave an IC50 [4] of 0.128 µM, an Activity [5] of 50% and an IC50 [6] of 0.0071 µM.

For `CCOCCNC(=O)/C(C)=C/CC12OC(C)(C)C3CC(C=C4C(=O)c5c(O)c(C/C=C(\C)CCC=C(C)C)c(O)c(CC=C(C)C)c5OC431)C2=O` (stereo unspecified), the Kd [7] was 0.116 µM.

`O=C(Nc1ccc(Nc2nccc(Nc3cc(C4CCCC4)[nH]n3)n2)cc1)Nc1cccc(C(F)(F)F)c1` gave an Emax [8] of 14% and an EC50 [9] of 0.223 µM.

`CNc1nc(Nc2cn(C(C)(C)C#N)nc2C)ncc1C(F)(F)F` [DNL-201] gave a Ki [10] of 0.0006 µM.

`CC(C)=CCC/C(C)=C/Cc1c(O)c(CC=C(C)C)c2c(c1O)C(=O)C1=CC3CC4C(C)(C)OC(C/C=C(\C)C(=O)O)(C3=O)C14O2` (stereo unspecified) showed a Kd [7] of 0.182 µM.

`CN[C@@H](C)C(=O)N[C@H](C(=O)N1CCC[C@H]1C(=O)N[C@H](C(=O)OC)C(c1ccccc1)c1ccccc1)C1CCCCC1` (H-[NMeA][Chg]P[Dip]-OMe) showed a Kd [11] of 0.006 µM and a Kd [12] of 0.016 µM.

With `C[C@H]1[C@@H](O)O[C@@H]2O[C@@]3(C)CC[C@H]4[C@H](C)CC[C@@H]1[C@@]24OO3` [ARTENIMOL] the “Ratio IC50” value [13] was 5, the IC50 [14] was 1 µM and the “Ratio IC50” value [15] was 5. The IC50 [16] was 1 µM.

`CC(=O)N1CCN(CCOc2ccc(C3CCN(C4=Nn5c(nnc5C(F)(F)F)CC4)CC3)cc2)CC1` [AZD3514] gave a Ki [17] of 5 µM.

`CNC(=O)COc1cc2cc(Nc3nc(N4C[C@H](C)C[C@H](C)C4)ncc3Cl)cc(OC)c2n(C)c1=O` showed an Activity [18] of 50%, an Activity [19] of over 90% and an IC50 [20] of 0.003 µM.

Compound `CCNc1nc(Nc2cc(F)c(C(=O)N3CCOCC3)cc2OC)ncc1C(F)(F)F` has a Ki [10] of 0.001 µM.

`Cc1cc(C)n(-c2ncc(Cl)c(Nc3ccc(Cl)cc3)n2)n1` gave an IC50 [21] of 18 µM.

In the case of `CNC(=O)COc1cc2cc(Nc3nc(N4CCC(C(=O)N(C)C)CC4)ncc3Cl)cc(OC)c2n(C)c1=O`, the Activity [18] is reported as 50% and the Activity [19] is reported as over 90%.

For `COc1cc(Nc2ncc3c(n2)-c2ccc(Cl)cc2C(c2c(F)cccc2OC)=NC3)ccc1C(=O)O` [ALISERTIB], the Emax [8] was 37%.

— ChEMBL document CHEMBL4665673, “Monomeric Targeted Protein Degraders” (J Med Chem, 2020)
